The experiment has as its target SARS-CoV-2 NSP3 Mac1 (Severe acute respiratory syndrome coronavirus 2, UniProt P0DTD1). The experiment can be described thus: biochemical. In kind it is binding. The following applies: for inhibition at 125 µM / IC50 in µM / IC50 / Inhibition at top concentration of 125 µM (%): MIDAS hit compounds and analogues; for inhibition at 125 µM: read-out: Inhibition at top concentration of 125 µM (%); for IC50 in µM / IC50: top concentration 125 µM, 8-point 1:1 dilution, duplicate; for IC50: read-out: IC50.

Several values for one entry are separate records, joined by “and”; a condition that tells them apart may be missing. Identical values can stand only once.

Regarding `COc1ccc(NC(=O)c2cc(-c3ccc(C)cc3)nc3onc(C)c23)cc1` [IAL-MD0037, COC=1C=CC(NC(=O)C=2C=C(N=C3ON=C(C)C23)C=4C=CC(C)=CC4)=CC1], the inhibition at 125 µM was 9.3% and the “IC50 in µM” value is recorded as “Not measurable”.
On the same counts, the results for `CCn1ncc2c(C(=O)Nc3cc(Cl)ccc3OC)cc(-c3cccs3)nc21` [IAL-MD0038, CCN1N=CC=2C(=CC(=NC12)C3=CC=CS3)C(=O)NC=4C=C(Cl)C=CC4OC] are 50.5% and “Not measurable”.
For orientation: IC50 means the concentration that inhibits the measured activity by half. Take `CCn1ncc2c(C(=O)N3CCNC(=O)C3)cc(-c3cccs3)nc21` [IAL-MD0040, CCN1N=CC=2C(=CC(=NC12)C3=CC=CS3)C(=O)N4CCNC(=O)C4]: the inhibition at 125 µM is 81%; the IC50 was 21 µM and 20.6 µM. Besides, the inhibition at 25 µM (MIDAS compound library primary screen, 25 µM) was 51%.
For the molecule `CCn1ncc2c(C(=O)N(C)Cc3ccccc3C)cc(-c3cccs3)nc21` [IAL-MD0042, CCN1N=CC=2C(=CC(=NC12)C3=CC=CS3)C(=O)N(C)CC=4C=CC=CC4C], the inhibition at 125 µM is 20.9% and the “IC50 in µM” value was “Not measurable”.
On the same counts, the results for `CC(C)n1ncc2c(C(=O)N3CCNC(=O)C3)cc(-c3ccc4c(c3)OCCO4)nc21` [IAL-MD0044, CC(C)N1N=CC=2C(=CC(=NC12)C=3C=CC=4OCCOC4C3)C(=O)N5CCNC(=O)C5] are 30.2% and “Not measurable”.
On the same counts, the results for `Cc1nn(C)c2nc(-c3ccccc3)cc(C(=O)N3CCN(C(=O)C4CC4)CC3)c12` [IAL-MD0045, CC1=NN(C)C=2N=C(C=C(C(=O)N3CCN(CC3)C(=O)C4CC4)C12)C=5C=CC=CC5] are 47.5% and “Not measurable”.
Turning to `Cc1nn(C)c2nc(-c3cccs3)cc(C(=O)NCc3ccccn3)c12` [IAL-MD0048, CC1=NN(C)C=2N=C(C=C(C(=O)NCC=3C=CC=CN3)C12)C4=CC=CS4], the inhibition at 125 µM was determined as 15.8% and the “IC50 in µM” value is “Not measurable”.
With `CC(C)n1ncc2c(C(=O)N3CC(=O)Nc4ccccc43)cc(-c3cccs3)nc21` [IAL-MD0049, CC(C)N1N=CC=2C(=CC(=NC12)C3=CC=CS3)C(=O)N4CC(=O)NC=5C=CC=CC45], the inhibition at 125 µM amounted to 14.3% and the “IC50 in µM” value is reported as “Not measurable”.
Consider `CCn1ncc2c(C(=O)N3CCOCC3)cc(-c3ccccc3)nc21` [IAL-MD0050, CCN1N=CC=2C(=CC(=NC12)C=3C=CC=CC3)C(=O)N4CCOCC4], for which the “Inhibition at top concentration of 125 µM (%)” value (from here on “Inhibition … (%)”) is “Not measurable” and the “IC50 in µM” value is “Not measurable”.
Turning to `Cc1ccc(-c2cc(C(=O)N3CCOCC3)c3cnn(C(C)C)c3n2)s1` [IAL-MD0051, CC(C)N1N=CC=2C(=CC(=NC12)C3=CC=C(C)S3)C(=O)N4CCOCC4], the inhibition at 125 µM turned out to be 59.8% and the IC50 amounted to 12.6 µM. In addition, the “assay effects in dose-response titration” value (MIDAS hits and analogues, higher compound concentrations) is “secondary assay effects at higher concentrations”.
As to `CC(=O)N1CCN(C(=O)c2cc(-c3cccs3)nc3c2c(C)nn3C)CC1` [IAL-MD0054, CC(=O)N1CCN(CC1)C(=O)C=2C=C(N=C3N(C)N=C(C)C23)C4=CC=CS4], the inhibition at 125 µM is 41.5% and the “IC50 in µM” value is on record as “Not measurable”.
On the same counts, the results for `CC(C)n1ncc2c(C(=O)Nc3ccncc3)cc(-c3cccs3)nc21` [IAL-MD0055, CC(C)N1N=CC=2C(=CC(=NC12)C3=CC=CS3)C(=O)NC=4C=CN=CC4] are 19.4% and “Not measurable”.
On the same counts, the results for `CCn1ncc2c(C(=O)N3CCC(C(O)c4ccccc4)CC3)cc(-c3cccs3)nc21` (stereo not drawn) [IAL-MD0056, CCN1N=CC=2C(=CC(=NC12)C3=CC=CS3)C(=O)N4CCC(CC4)C(O)C=5C=CC=CC5] are 7% and “Not measurable”.
On the same counts, the results for `COc1ccc(-c2cc(C(=O)Nc3ccc(S(C)(=O)=O)cc3)c3ccccc3n2)cc1` [IAL-MD0058, COC=1C=CC(=CC1)C=2C=C(C(=O)NC=3C=CC(=CC3)S(=O)(=O)C)C=4C=CC=CC4N2] are 18.7% and “Not measurable”.
For the molecule `CC(=O)Nc1ccc(C=Cc2cc(C(=O)O)c3cc(C)ccc3n2)cc1` [IAL-MD0059, CC(=O)NC=1C=CC(C=CC=2C=C(C(=O)O)C=3C=C(C)C=CC3N2)=CC1], the inhibition at 125 µM was found to be 63% and the half-maximal inhibitory concentration (IC50) amounted to 22.8 µM.
`CC(C)n1ncc2c(C(=O)N3CCc4ccccc4C3)cc(-c3cccs3)nc21` [IAL-MD0060, CC(C)N1N=CC=2C(=CC(=NC12)C3=CC=CS3)C(=O)N4CCC=5C=CC=CC5C4]: the inhibition at 125 µM turned out to be 1.9% and the “IC50 in µM” value was “Not measurable”.
On the same counts, the results for `CCn1ncc2c(C(=O)Nc3cccc(-c4nnco4)c3)cc(-c3cccs3)nc21` [IAL-MD0061, CCN1N=CC=2C(=CC(=NC12)C3=CC=CS3)C(=O)NC=4C=CC=C(C4)C5=NN=CO5] are 7% and “Not measurable”.
On the same counts, the results for `CCn1ncc2c(C(=O)N(C)CC(=O)NCc3ccco3)cc(-c3cccs3)nc21` [IAL-MD0062, CCN1N=CC=2C(=CC(=NC12)C3=CC=CS3)C(=O)N(C)CC(=O)NCC4=CC=CO4] are 42.2% and “Not measurable”.
`CC(C)n1ncc2c(C(=O)N3CCNC(=O)C3)cc(-c3cccs3)nc21` [IAL-MD0064, CC(C)N1N=CC=2C(=CC(=NC12)C3=CC=CS3)C(=O)N4CCNC(=O)C4]: the inhibition at 125 µM amounted to 78.7%; the IC50 is 25 µM and 25.2 µM.
As to `CC(C)n1ncc2c(C(=O)N(C)Cc3ccc4c(c3)OCO4)cc(-c3cccs3)nc21` [IAL-MD0065, CC(C)N1N=CC=2C(=CC(=NC12)C3=CC=CS3)C(=O)N(C)CC=4C=CC=5OCOC5C4], the inhibition at 125 µM was 9.5% and the “IC50 in µM” value is on record as “Not measurable”.
On the same counts, the results for `CCn1ncc2c(C(=O)N3CCCC3c3ccc(OC)cc3)cc(-c3cccs3)nc21` (stereo not drawn) [IAL-MD0066, CCN1N=CC=2C(=CC(=NC12)C3=CC=CS3)C(=O)N4CCCC4C=5C=CC(OC)=CC5] are 13.5% and “Not measurable”.
In the case of `CCn1ncc2c(C(=O)N3CCN(C(=O)c4ccccc4)CC3)cc(-c3ccccc3)nc21` [IAL-MD0069, CCN1N=CC=2C(=CC(=NC12)C=3C=CC=CC3)C(=O)N4CCN(CC4)C(=O)C=5C=CC=CC5], the “Inhibition … (%)” value was “Not measurable” and the “IC50 in µM” value is given as “Not measurable”.
For `CC(C)n1ncc2c(C(=O)N3CCNC(=O)C3)cc(-c3ccco3)nc21` [IAL-MD0070, CC(C)N1N=CC=2C(=CC(=NC12)C3=CC=CO3)C(=O)N4CCNC(=O)C4], the inhibition at 125 µM stood at 83.2% and the IC50 was determined as 16.3 µM.
On to `CCn1ncc2c(C(=O)N(Cc3ccccn3)C(C)C)cc(-c3cccs3)nc21` [IAL-MD0071, CCN1N=CC=2C(=CC(=NC12)C3=CC=CS3)C(=O)N(CC=4C=CC=CN4)C(C)C], for which the inhibition at 125 µM stood at 36.8% and the “IC50 in µM” value is listed as “Not measurable”.
Regarding `CC1c2cccn2CCN1C(=O)c1cc(-c2cccs2)nc2c1cnn2C(C)C` (stereo not drawn) [IAL-MD0072, CC(C)N1N=CC=2C(=CC(=NC12)C3=CC=CS3)C(=O)N4CCN5C=CC=C5C4C], the inhibition at 125 µM worked out at 9.8% and the “IC50 in µM” value is “Not measurable”.
On the same counts, the results for `Cc1cc(CN(C)C(=O)c2cc(-c3cccs3)nc3c2cnn3C(C)C)no1` [IAL-MD0073, CC(C)N1N=CC=2C(=CC(=NC12)C3=CC=CS3)C(=O)N(C)CC=4C=C(C)ON4] are 47% and “Not measurable”.
Take `CCn1ncc2c(C(=O)NCC(=O)N(C)C)cc(-c3cccs3)nc21` [IAL-MD0074, CCN1N=CC=2C(=CC(=NC12)C3=CC=CS3)C(=O)NCC(=O)N(C)C]: the inhibition at 125 µM was found to be 77.7% and the IC50 turned out to be 25.3 µM.
Consider `CC(C)n1ncc2c(C(=O)N3CCNC(=O)C3(C)C)cc(-c3cccs3)nc21` [IAL-MD0075, CC(C)N1N=CC=2C(=CC(=NC12)C3=CC=CS3)C(=O)N4CCNC(=O)C4(C)C], for which the inhibition at 125 µM amounted to 30.9% and the “IC50 in µM” value is “Not measurable”.
On the same counts, the results for `CC(=O)Nc1cccc(C(=O)N2CCC(c3c[nH]c4ncccc34)CC2)c1` [IAL-MD0078, CC(=O)NC=1C=CC=C(C1)C(=O)N2CCC(CC2)C3=CNC=4N=CC=CC34] are 10.5% and “Not measurable”.
As for `COc1ccc(-c2cc(C(=O)Nc3nnc[nH]3)c3ccccc3n2)cc1` [IAL-MD0079, COC=1C=CC(=CC1)C=2C=C(C(=O)NC3=NN=CN3)C=4C=CC=CC4N2], the inhibition at 125 µM came to 16.3% and the “IC50 in µM” value is “Not measurable”.
On the same counts, the results for `CC(C)n1ncc2c(C(=O)N3CCCCC3C(=O)N3CCCC3)cc(-c3cccs3)nc21` (stereo not drawn) [IAL-MD0080, CC(C)N1N=CC=2C(=CC(=NC12)C3=CC=CS3)C(=O)N4CCCCC4C(=O)N5CCCC5] are 45.9% and “Not measurable”.
On the same counts, the results for `CNC(=O)CN(C)C(=O)c1cc(-c2cccs2)nc2c1c(C)nn2C` [IAL-MD0081, CNC(=O)CN(C)C(=O)C=1C=C(N=C2N(C)N=C(C)C12)C3=CC=CS3] are 53% and “Not measurable”.
In the case of `CC(=O)N1CCN(C(=O)c2cc(-c3ccccc3)nc3c2cnn3C(C)C)CC1` [IAL-MD0082, CC(C)N1N=CC=2C(=CC(=NC12)C=3C=CC=CC3)C(=O)N4CCN(CC4)C(=O)C], the “Inhibition … (%)” value is recorded as “Not measurable” and the “IC50 in µM” value is given as “Not measurable”.
For the molecule `CC(C)n1ncc2c(C(=O)N3CCCC3)cc(-c3cccs3)nc21` [IAL-MD0083, CC(C)N1N=CC=2C(=CC(=NC12)C3=CC=CS3)C(=O)N4CCCC4], the inhibition at 125 µM turned out to be 47.4% and the “IC50 in µM” value is listed as “Not measurable”.
On the same counts, the results for `COc1ncccc1C(=O)N1CCC(c2c[nH]c3ncccc23)CC1` [IAL-MD0084, COC=1N=CC=CC1C(=O)N2CCC(CC2)C3=CNC=4N=CC=CC34] are 13.2% and “Not measurable”.
